Measurements from US10829520B2, “Beta-hairpin peptidomimetics” (POLYPHOR AG, priority 2015, dated 2020).
Where a SMILES comes first, the peptide text is derived from it. Bridges are numbered along the chain shown (N, C = ends). [ ]: non-standard residue; d: D form. Tle = CC(C)(C)[C@H](N)C(=O)O; dDab = NCC[C@@H](N)C(=O)O; Nle = CCCC[C@H](N)C(=O)O; Orn = NCCC[C@H](N)C(=O)O; Dab = NCC[C@H](N)C(=O)O; Dap = NC[C@H](N)C(=O)O

Legend:
Format in all cases: cell-based
[1] = tested on: human red blood cells (hRBC); experiment: Hemolysis of human red blood cells; conditions: red cells of human, 1 h, 100 μg/mL
Outline: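 Percent hemolysis = OD540 of peptide-treated supernatant relative to the 2.5% Triton X-100 (100%) control, PBS containing 0.001% acetic acid defining 0%. Peptides tested at 100 μg/mL against 20% (v/v) washed human RBC, 1 h, 37 °C, 300 rpm.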

[2] = tested on: Escherichia coli 926415; conditions: 926415
[3] = tested on: Klebsiella pneumoniae 968733; conditions: 968733
[4] = tested on: Acinetobacter baumannii DSM 30008; conditions: DSM 30008
Outline: (§1)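 MIC in μg/mL read as absence of visible growth after 18-20 h incubation at 35° C. Bacteria at about 10^6 CFU/mL in MH-II (cation-adjusted) broth plus 0.002% P-80 were exposed to two-fold peptide dilutions per standard CLSI microdilution.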

[5] = tested on: Pseudomonas aeruginosa ATCC 27853; conditions: ATCC 27853
Outline: as §1

[6] = tested on: Klebsiella pneumoniae SSI #3010; conditions: SSI #3010
Outline: as §1

[7] = tested on: Escherichia coli ATCC 25922; conditions: ATCC 25922
Outline: as §1

[8] = tested on: Acinetobacter baumannii 872842; conditions: 872842

SMILES | Hemolysis at 100 μg/mL [1] | Escherichia coli 926415 MIC [2] | Klebsiella pneumoniae 968733 MIC [3] | Acinetobacter baumannii DSM 30008 MIC [4] | Pseudomonas aeruginosa ATCC 27853 MIC [5] | Klebsiella pneumoniae SSI #3010 MIC [6] | Escherichia coli ATCC 25922 MIC [7] | Acinetobacter baumannii 872842 MIC [8]
CCCC[C@@H]1NC(=O)[C@@H]2CCCN2C(=O)[C@H]2CCCN2C(=O)[C@H](CO)NC(=O)[C@H]([C@@H](C)O)NC(=O)[C@H](C(C)(C)C)NC(=O)[C@@H](NC(=O)[C@H](Cc2c[nH]c3ccccc23)NC(C)=O)CSSC[C@@H](C(=O)N[C@@H](CCCN)C(=O)N[C@@H](CCN)C(=O)N[C@H]2CCNC(=O)[C@H]([C@@H](C)O)NC(=O)[C@H](CCN)NC(=O)[C@H](CCN)NC(=O)[C@H](CC(C)C)NC(=O)[C@@H](Cc3ccccc3)NC(=O)[C@H](CCN)NC2=O)NC(=O)[C@H](Cc2ccc(O)cc2)NC(=O)[C@H](CO)NC1=O [Ex. 47] (Ac-WC[Tle]TS[dP]P[Nle]SYC[Orn][Dab][Dab][Dab][dF]L[Dab][Dab]T; disulfide 2-11; lactam 14-C) | 1% | 0.5 µg/mL | 1 µg/mL | 0.25 µg/mL | 0.5 µg/mL | 0.5 µg/mL | 0.25 µg/mL | 0.5 µg/mL
CCCC[C@@H]1NC(=O)[C@@H]2CCCN2C(=O)[C@H]2CCCN2C(=O)[C@H](CO)NC(=O)[C@H](C)NC(=O)[C@H](C(C)(C)C)NC(=O)[C@@H](NC(=O)[C@H](Cc2c[nH]c3ccccc23)NC(C)=O)CSSC[C@@H](C(=O)N[C@@H](CCCN)C(=O)N[C@@H](CCN)C(=O)N[C@H]2CCNC(=O)[C@H]([C@@H](C)O)NC(=O)[C@H](CCN)NC(=O)[C@H](CCN)NC(=O)[C@H](CC(C)C)NC(=O)[C@@H](Cc3ccccc3)NC(=O)[C@H](CCN)NC2=O)NC(=O)[C@H](Cc2ccc(O)cc2)NC(=O)[C@H](CO)NC1=O [Ex. 48] (Ac-WC[Tle]AS[dP]P[Nle]SYC[Orn][Dab][Dab][Dab][dF]L[Dab][Dab]T; disulfide 2-11; lactam 14-C) | 2% | 0.25 µg/mL | 1 µg/mL | 0.5 µg/mL | 1 µg/mL | 0.25 µg/mL | 0.125 µg/mL | 0.5 µg/mL
CCCC[C@@H]1NC(=O)[C@@H]2CCCN2C(=O)[C@H]2CCCN2C(=O)[C@H](CO)NC(=O)[C@H](C)NC(=O)[C@H](C(C)(C)C)NC(=O)[C@@H](NC(=O)[C@H](Cc2c[nH]c3ccccc23)NC(C)=O)CSSC[C@@H](C(=O)N[C@@H](CCCN)C(=O)N[C@H](CCN)C(=O)N[C@H]2CCNC(=O)[C@H]([C@@H](C)O)NC(=O)[C@H](CCN)NC(=O)[C@H](CCN)NC(=O)[C@H](CC(C)C)NC(=O)[C@@H](Cc3ccccc3)NC(=O)[C@H](CCN)NC2=O)NC(=O)[C@H](Cc2ccc(O)cc2)NC(=O)[C@H](CO)NC1=O [Ex. 49] (Ac-WC[Tle]AS[dP]P[Nle]SYC[Orn][dDab][Dab][Dab][dF]L[Dab][Dab]T; disulfide 2-11; lactam 14-C) | <1% | 0.5 µg/mL | 1 µg/mL | 0.25 µg/mL | 1 µg/mL | 0.5 µg/mL | 0.25 µg/mL | 1 µg/mL
CCCC[C@@H]1NC(=O)[C@@H]2CCCN2C(=O)[C@H]2CCCN2C(=O)[C@H](CO)NC(=O)[C@H](C)NC(=O)[C@H](C(C)(C)C)NC(=O)[C@@H](NC(=O)[C@H](Cc2c[nH]c3ccccc23)NC(C)=O)CSSC[C@@H](C(=O)N[C@@H](CCN)C(=O)N[C@@H](CN)C(=O)N[C@H]2CCNC(=O)[C@H]([C@@H](C)O)NC(=O)[C@H](CCN)NC(=O)[C@H](CCN)NC(=O)[C@H](CC(C)C)NC(=O)[C@@H](Cc3ccccc3)NC(=O)[C@H](CCN)NC2=O)NC(=O)[C@H](Cc2ccc(O)cc2)NC(=O)[C@H](CO)NC1=O [Ex. 50] (Ac-WC[Tle]AS[dP]P[Nle]SYC[Dab][Dap][Dab][Dab][dF]L[Dab][Dab]T; disulfide 2-11; lactam 14-C) | 1% | 0.5 µg/mL | 2 µg/mL | 0.25 µg/mL | 1 µg/mL | 0.25 µg/mL | 0.25 µg/mL | 0.5 µg/mL
CCCC[C@@H]1NC(=O)[C@@H]2CCCN2C(=O)[C@H]2CCCN2C(=O)[C@H](CO)NC(=O)[C@H](C)NC(=O)[C@H](C(C)(C)C)NC(=O)[C@@H](NC(=O)[C@H](Cc2ccccc2)NC(C)=O)CSSC[C@@H](C(=O)N[C@@H](CCCN)C(=O)N[C@@H](CCN)C(=O)N[C@H]2CCNC(=O)[C@H]([C@@H](C)O)NC(=O)[C@H](CCN)NC(=O)[C@H](CCN)NC(=O)[C@H](CC(C)C)NC(=O)[C@@H](Cc3ccccc3)NC(=O)[C@H](CCN)NC2=O)NC(=O)[C@H](Cc2ccc(O)cc2)NC(=O)[C@H](CO)NC1=O [Ex. 51] (Ac-FC[Tle]AS[dP]P[Nle]SYC[Orn][Dab][Dab][Dab][dF]L[Dab][Dab]T; disulfide 2-11; lactam 14-C) | <1% | 2 µg/mL | 4 µg/mL | 0.5 µg/mL | 1 µg/mL | 0.5 µg/mL | 0.25 µg/mL | 4 µg/mL
CCCC[C@@H]1NC(=O)[C@@H]2CCCN2C(=O)[C@H]2CCCN2C(=O)[C@H](C(C)C)NC(=O)[C@H](C)NC(=O)[C@H](Cc2ccc(O)cc2)NC(=O)[C@@H](NC(=O)[C@H](Cc2c[nH]c3ccccc23)NC(C)=O)CSSC[C@@H](C(=O)N[C@@H](CCCN)C(=O)N[C@@H](CCN)C(=O)N[C@H]2CCNC(=O)[C@H]([C@@H](C)O)NC(=O)[C@H](CCN)NC(=O)[C@H](CCN)NC(=O)[C@H](CC(C)C)NC(=O)[C@@H](Cc3ccccc3)NC(=O)[C@H](CCN)NC2=O)NC(=O)[C@H](Cc2ccc(O)cc2)NC(=O)[C@H](CO)NC1=O [Ex. 52] (Ac-WCYAV[dP]P[Nle]SYC[Orn][Dab][Dab][Dab][dF]L[Dab][Dab]T; disulfide 2-11; lactam 14-C) | 2% | 3 µg/mL | 2 µg/mL | 0.5 µg/mL | 4 µg/mL | 0.5 µg/mL | 0.5 µg/mL | 4 µg/mL
CCCC[C@@H]1NC(=O)[C@@H]2CCCN2C(=O)[C@@H](CCN)NC(=O)[C@H](CO)NC(=O)[C@H](C)NC(=O)[C@H](C(C)(C)C)NC(=O)[C@@H](NC(=O)[C@H](Cc2c[nH]c3ccccc23)NC(C)=O)CSSC[C@@H](C(=O)N[C@@H](CCCN)C(=O)N[C@@H](CCN)C(=O)N[C@H]2CCNC(=O)[C@H]([C@@H](C)O)NC(=O)[C@H](CCN)NC(=O)[C@H](CCN)NC(=O)[C@H](CC(C)C)NC(=O)[C@@H](Cc3ccccc3)NC(=O)[C@H](CCN)NC2=O)NC(=O)[C@H](Cc2ccc(O)cc2)NC(=O)[C@H](CO)NC1=O [Ex. 53] (Ac-WC[Tle]AS[dDab]P[Nle]SYC[Orn][Dab][Dab][Dab][dF]L[Dab][Dab]T; disulfide 2-11; lactam 14-C) | 1% | 1 µg/mL | 8 µg/mL | 0.25 µg/mL | 2 µg/mL | 0.5 µg/mL | 0.25 µg/mL | 2 µg/mL
CCCC[C@@H]1NC(=O)[C@@H]2CCCN2C(=O)[C@H]2CCCN2C(=O)[C@H](CO)NC(=O)[C@H](C)NC(=O)[C@H](C(C)(C)C)NC(=O)[C@@H](NC(=O)[C@H](Cc2c[nH]c3ccccc23)NC(C)=O)CSSC[C@@H](C(=O)N[C@@H](CCCN)C(=O)N[C@@H](CCN)C(=O)N[C@H]2CCNC(=O)[C@H]([C@@H](C)O)NC(=O)[C@H](CCN)NC(=O)[C@H](CCN)NC(=O)[C@H](CC(C)C)NC(=O)[C@@H](CC(C)C)NC(=O)[C@H](CCN)NC2=O)NC(=O)[C@H](Cc2ccc(O)cc2)NC(=O)[C@H](CO)NC1=O [Ex. 54] (Ac-WC[Tle]AS[dP]P[Nle]SYC[Orn][Dab][Dab][Dab][dL]L[Dab][Dab]T; disulfide 2-11; lactam 14-C) | 1% | 1 µg/mL | 4 µg/mL | 0.5 µg/mL | 2 µg/mL | 0.5 µg/mL | 0.25 µg/mL | 1 µg/mL
